According to BindingDB's records for doi:10.1021/jm00080a018 (Toyo Jozo, 1992):

biological target: Adenosylhomocysteinase (Oryctolagus cuniculus); assay: Inhibitory effect against S-adenosyl-L-homocysteine hydrolase of rabbit erythrocyte.

Row | SMILES | IC50 [µM]
1 | CC1=C[C@@H](n2cnc3c(N)ncnc32)[C@H](O)[C@@H]1O | > 40.4
2 | Nc1ncnc2c1ncn2[C@@H]1C=C(CCl)[C@@H](O)[C@H]1O | > 35.4
3 | Nc1ncnc2c1ncn2[C@@H]1C=C(CF)[C@@H](O)[C@H]1O | > 37.7
4 | CSCC1=C[C@@H](n2cnc3c(N)ncnc32)[C@H](O)[C@@H]1O | > 34

Other lines, results leading:

Row | IC50 [µM] | SMILES
5 | > 36 | COCC1=C[C@@H](n2cnc3c(N)ncnc32)[C@H](O)[C@@H]1O
6 | > 38.5 | C=CC1=C[C@@H](n2cnc3c(N)ncnc32)[C@H](O)[C@@H]1O
